Assay results reported in US8802704B2, “Oxadiazole derivatives” (Merck Serono SA, priority 2009, dated 2014).
pEC50: −log10 of the molar value. Where two headings read alike, the source gives them in different places.

Legend:
S1P1 [1] = molecular target: T1, S1P1 (Homo sapiens, UniProt P21453); assay: Receptor binding assay, [33P]sphingosine 1-phosphate competition (SPA), S1P1
Target sequence in this assay (P21453 whole entry, species assumed): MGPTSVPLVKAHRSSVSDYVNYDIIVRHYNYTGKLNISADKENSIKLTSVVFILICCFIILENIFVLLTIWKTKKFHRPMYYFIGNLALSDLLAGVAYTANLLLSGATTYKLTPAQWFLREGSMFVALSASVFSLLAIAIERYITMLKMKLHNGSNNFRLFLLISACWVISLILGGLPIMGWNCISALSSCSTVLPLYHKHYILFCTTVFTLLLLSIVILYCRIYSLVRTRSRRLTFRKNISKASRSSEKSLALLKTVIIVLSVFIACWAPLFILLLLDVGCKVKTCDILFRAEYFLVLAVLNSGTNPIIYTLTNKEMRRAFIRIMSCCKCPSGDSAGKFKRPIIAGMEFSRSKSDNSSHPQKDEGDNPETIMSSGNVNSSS

S1P3 = S1P3 (Homo sapiens, UniProt Q99500); assay: Receptor binding assay, [33P]sphingosine 1-phosphate competition (SPA), S1P3
S1P1 [2] = molecular target: T1, S1P1; assay: S1P1 internalization assay in S1P1-U2OS cells (cell imaging); type: cell-based; conditions: U2OS cells expressing S1P1-EGFP, 1 hour
Method in brief: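 U2OS cells stably expressing human S1P1-EGFP, serum-starved 2 h in medium with 0.1% fatty-acid-free BSA, then treated with compound for 1 h at 37° C. After paraformaldehyde fixation and Hoechst staining, internalization imaged as S1P1-EGFP spot count per nucleus.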
Target sequence in this assay (P21453 whole entry): as the sequence (P21453 whole entry, species assumed) above

lymphocytes = assay: Model of S1P agonists-induced lymphopenia in mice; type: in vivo; conditions: oral route
Procedure: (§1) Female C57BL/6 mice (Elevage Janvier) (8 week old) receive S1P agonists by oral route. Blood is sampled in heparinized (100 IU/kg, ip) mice by intracardiac or retroorbital puncture under isoflurane anesthesia 2 to 120 hrs after drug treatment. The white blood cells (lymphocytes and neutrophils) are counted using a Beckman/Coulter counter. The quality of blood sampling is assessed by counting erythocytes and platelets.

[3] = Pharmacokinetics (PK parameters from lymphopenia, mouse); type: in vivo; conditions: PK-PD (30 mpk)
Procedure: as §1
The pharmacoinetic properties of compound of example 70, N-(2-fluoro-4-{5-[2′-methyl-2-(trifluoromethyl)biphenyl-4-yl]-1,2,4-oxadiazol-3-yl}benzyl)-N-methylglycine, are the following: […]

[4] = female, C57BL/6, plasma, po, 30 mg/kg

Sequence of S1P3 (Q99500 whole entry, species assumed): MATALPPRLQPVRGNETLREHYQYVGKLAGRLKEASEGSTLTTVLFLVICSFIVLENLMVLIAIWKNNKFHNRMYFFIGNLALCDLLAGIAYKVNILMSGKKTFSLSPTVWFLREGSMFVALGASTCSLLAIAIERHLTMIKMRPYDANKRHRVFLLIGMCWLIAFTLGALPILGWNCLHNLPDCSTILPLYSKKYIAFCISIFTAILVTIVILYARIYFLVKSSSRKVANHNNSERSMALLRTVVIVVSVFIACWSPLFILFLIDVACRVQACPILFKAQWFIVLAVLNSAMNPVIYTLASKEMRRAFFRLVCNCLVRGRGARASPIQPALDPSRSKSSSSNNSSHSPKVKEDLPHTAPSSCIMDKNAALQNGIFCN

Ki (S1P1 [1]; 96 well-plate, read-out: S1P1 binding Ki (M) (96 well-plate)): 6.81e-10 M
Ki (S1P1 [1]; 384 well-plate, read-out: S1P1 binding Ki (M) (384 well-plate)): 2.19e-09 M
Ki (S1P3; 96 well-plate, read-out: S1P3 binding Ki (M) (96 well-plate)): 4.43e-07 M
Ki (S1P3; 384 well-plate, read-out: S1P3 binding Ki (M) (384 well-plate)): 4.11e-07 M
pEC50 (S1P1 [2]): 7.89
Lymphe node/plasma ratio: 24 h ([3]; 24 h): 4.4
Lymphe node/plasma ratio: 48 h ([3]; 48 h): 4.0
Kp ([3]; female, C57BL/6, brain, oral, 30 mg/kg, ratio of AUCZ, read-out: Brain/plasma ratio: AUCZ (h * ng/ml)): 2.4
AUC(0-inf) [3, 4]: 104 µg·h/mL
CL/F [3, 4]: 5 mL/min/kg
Cmax [3, 4]: 8780 ng/mL
Tmax [3, 4]: 2 h
half-life [3, 4]: 7.5 h
Structure (SMILES): Cc1ccccc1-c1ccc(-c2nc(-c3ccc(CN(C)CC(=O)O)c(F)c3)no2)cc1C(F)(F)F [Example 70, N-(2-fluoro-4-{5-[2′-methyl-2-(trifluoromethyl)biphenyl-4-yl]-1,2,4-oxadiazol-3-yl}benzyl)-N-methylglycine]
% of lymphopenia in mouse at 48 h (lymphocytes): 72 +/− 8%
